The data set can be described thus: Stability of Src peptide substrate 1 in prostate cell lysates. It counts as in vitro ADME, human. Conditions: for % Remaining Parent / remaining at 1 h: M-PER lysis buffer, no ATP/Mg2+, 1 h; for remaining at 1 h: read-out: % Remaining Parent. The procedure:
Peptides commonly suffer protease-catalyzed degradation in cells as well as in cell lysates. Consequently, prior to examining Src kinase-catalyzed phosphorylation of peptide 1 with lysates, we monitored the stability of the peptide as a function of time. Cells were lysed using Pierce’s M-PER mammalian lysis buffer and, in the absence of ATP and Mg^2+ (i.e. no observable kinase activity), the lysate was added to peptide 1. Only approximately 10% of the peptide is degraded after 1 h (Table S1). Since the phosphorylation rate is measured within 10 min of incubation (Fig. S1), the peptide is sufficiently stable for our needs.
Capillary electrophoresis was performed on a ProteomeLab PA800 system equipped with a laser-induced fluorescence (LIF) detector (Beckman Coulter). The LIF was excited using the 488 nm argon laser. A fused-silica capillary (30/20 cm total/effective length, 50/360 µm inner/outer diameter) was used for separation (Polymicro Technologies). Prior to installation, capillaries were pretreated with 0.1 M NaOH for 12 h, distilled water for 1 h, 0.1 M HCl for 6 h and water again for 12 h. The samples were hydrodynamically injected and separated at 25°C at a constant voltage of 12 kV. The running buffer was 100 mM Borate/100 mM SDS buffer at pH 7.7. Before each run, the capillary was rinsed with 0.1 M NaOH, distilled water, and then the running buffer for 2 min under 20 psi pressure. Data was collected and analyzed using 32 Karat Software (Version 8.0, Beckman Coulter).
All cell lines were acquired from ATCC and grown in a humidified incubator at 37°C with 5% CO2. PZ-HPV-7, RWPE1, WPE1-NA22, WPE1-NB14, WPE1-NB11 and WPE1-NB26 cell lines were cultured in Keratinocyte Serum Free Medium (K-SFM) supplied with 0.05 mg/mL bovine pituitary extract (BPE) and 5 ng/mL epidermal growth factor (EGF) (all provided as a kit from Invitrogen), and 1% penicillin/streptomycin (P/S; Invitrogen). CWR22Rv1 cells were cultured in RPMI-1640 medium (Invitrogen) supplemented with 10% heat-inactivated fetal bovine serum (HI-FBS, Invitrogen) and 1% P/S. DU145 cells were cultured in Eagle’s Minimum Essential Medium (EMEM, ATCC) supplemented with 10% HI-FBS and 1% P/S. PC3 cells were cultured in F-12K medium (ATCC) supplemented with 10% HI-FBS and 1% P/S. Cell lysates were prepared as follows: confluent cells were first trypsinized and collected into 15 mL tubes in the presence of FBS-containing buffer or medium and then washed (3X) with ice cold DPBS buffer. The cells were lysed using M-PER mammalian protein extraction reagent mixed with 5/100 (v/v) Halt protease and phosphatase inhibitor cocktail EDTA-free (Thermo Fisher Scientific) for 10 min at 4°C. Cell debris was removed by centrifuging samples at 14,000 x g for 10 min at 4°C. The total protein concentrations were determined using Dc Protein assay (Bio-Rad).
Cell Line % Remaining Parent

Where two headings read alike, the source gives them in different places. Where a SMILES comes first, the peptide text is derived from it. [ ]: non-standard residue; d: D form. The star is where a group is joined. 5FAM = O=C1OC2(c3ccc(O)cc3Oc3cc(O)ccc32)c2ccc(C(=O)*)cc21; Orn = NCCC[C@H](N)C(=O)O

In general, amount remaining refers to the share of the starting amount still present when the sample was taken. In the case of `CC[C@H](C)[C@H](NC(=O)[C@H](CCC(=O)O)NC(=O)[C@H](CCC(=O)O)NC(=O)[C@H](CCC(=O)O)NC(=O)[C@H](CCCNC(C)=O)NC(=O)c1ccc2c(c1)C(=O)OC21c2ccc(O)cc2Oc2cc(O)ccc21)C(=O)N[C@@H](Cc1ccc(O)cc1)C(=O)NCC(=O)N[C@@H](CCC(=O)O)C(=O)N[C@@H](Cc1ccccc1)C(=O)N[C@@H](CCCNC(C)=O)C(N)=O` [peptide 1] (5FAM-[Orn](Ac)EEEIYGEF[Orn](Ac)-NH2), the “% Remaining Parent” value was 92.9 ± 0.5% (DU145 cell lysate); 89.2 ± 2.2% (PC3 cell lysate); 92.4 ± 0.8% (WPE1-NA22 cell lysate); 91.4 ± 1.2% (WPE1-NB14 cell lysate); 91.0 ± 1.5% (WPE1-NB26 cell lysate). The metabolised at 1 h (human, prostate cell lysates, prostate cell lysate (M-PER mammalian lysis buffer), absence of ATP and Mg2+, after 1 h, read-out: peptide degraded) is ~10%. The fraction remaining at 1 h is 92.4 ± 0.2% (human, PZ-HPV-7 cell lysate); 91 ± 0.6% (human, RWPE1 cell lysate); 89.8 ± 1.5% (human, WPE1-NB11 cell lysate).

The values above are taken from publication PMC3492248, “Src Kinase Regulation in Progressively Invasive Cancer” (PLoS ONE, 2012).
